Assay results reported in patent US12545944B2, “Method of detection” (priority 2017, dated 2026).

Tests used:
[1] = cited from earlier work
[2] = system: carbapenemase-producing E. coli strains; assay: Colistin MIC by broth microdilution (BMD), CLSI/EUCAST; assay type: cell-based, Escherichia coli

## C1CCCCC1 [cyclohexane]
[1]
  Solubility in water: <0.1 g/100 g

## CN1CCCC1=O [N-methyl-2-pyrrolidinone (NMP), N-methyl-2-pyrrolidinone]
[1]
  Solubility in water: 10 g/100 g

## CN(C)P(N(C)C)N(C)C [Hexamethyl-phosphorous triamide (HMPT), Hexamethylphosphorous triamide]
[1]
  Solubility in water: Miscible

## COCCOC [1,2-dimethoxy-ethane (glyme, DME), 1,2-dimethoxy-ethane]
[1]
  Solubility in water: Miscible

## C[S+](C)[O-] [dimethyl sulfoxide (DMSO), dimethyl sulfoxide]
[1]
  Solubility in water: 25.3 g/100 g

## OCC(O)CO [glycerin]
[1]
  Solubility in water: Miscible

## CC(C)O [2-propanol]
[1]
  Solubility in water: Miscible

## CCCCCC [hexane]
[1]
  Solubility in water: 0.014 g/100 g

## CCOC(C)=O [ethyl acetate]
[1]
  Solubility in water: 8.7 g/100 g

## Colistin (Polymyxin E)
[2]; KPC-2 producing E. coli, N=1, mcr-1/-2 PCR negative
  Colistin MIC: 0.25 µg/mL
[2]; KPC-3 producing E. coli, N=1, mcr-1/-2 PCR negative
  Colistin MIC: 0.25 µg/mL
[2]; NDM-1 producing E. coli, N=1, mcr-1/-2 PCR negative
  Colistin MIC: 0.5 µg/mL
[2]; NDM-1 producing E. coli, N=1, mcr-1 PCR positive, PRR 1.73 ± 0.23
  Colistin MIC: 4 µg/mL
[2]; NDM-1 producing E. coli, N=1, mcr-1 PCR positive, PRR 2.34 ± 0.12
  Colistin MIC: 4 µg/mL
[2]; NDM-1 producing E. coli, N=3, mcr-1/-2 PCR negative
  Colistin MIC: 0.25 µg/mL
[2]; NDM-5 producing E. coli, N=2, mcr-1/-2 PCR negative
  Colistin MIC: 0.25 µg/mL
[2]; NDM-5 producing E. coli, N=3, mcr-1/-2 PCR negative
  Colistin MIC: 0.5 µg/mL
[2]; OXA-48 producing E. coli, N=1, mcr-1/-2 PCR negative
  Colistin MIC: 1 µg/mL
[2]; OXA-48 producing E. coli, N=1, mcr-1 PCR positive, PRR 1.29 ± 0.63
  Colistin MIC: 4 µg/mL
[2]; OXA-48 producing E. coli, N=26, mcr-1/-2 PCR negative
  Colistin MIC: 0.5 µg/mL
[2]; OXA-48 producing E. coli, N=27, mcr-1/-2 PCR negative
  Colistin MIC: 0.25 µg/mL
[2]; OXA-181 + NDM-5 producing E. coli, N=1, mcr-1/-2 PCR negative
  Colistin MIC: 0.25 µg/mL
[2]; OXA-181 producing E. coli, N=4, mcr-1/-2 PCR negative
  Colistin MIC: 0.25 µg/mL
[2]; OXA-204 producing E. coli, N=1, mcr-1/-2 PCR negative
  Colistin MIC: 0.25 µg/mL
[2]; OXA-244 producing E. coli, N=1 (first line), mcr-1/-2 PCR negative
  Colistin MIC: 0.25 µg/mL
[2]; OXA-244 producing E. coli, N=1 (second line), mcr-1/-2 PCR negative
  Colistin MIC: 0.5 µg/mL
[2]; VIM-1 producing E. coli, N=1, mcr-1/-2 PCR negative
  Colistin MIC: 0.5 µg/mL
[2]; VIM-4 producing E. coli, N=1, mcr-1/-2 PCR negative
  Colistin MIC: 0.25 µg/mL
[2]; two NDM-1 and one OXA-48 producer, resistant to colistin, positive for the mcr-1 gene
  MICs of colistin: 4 mg/L

## CCO [ethanol]
[1]
  Solubility in water: Miscible

## Clc1ccccc1 [chlorobenzene]
[1]
  Solubility in water: 0.05 g/100 g

## COCCOCCOC [diethylene glycol dimethyl ether]
[1]
  Solubility in water: Miscible
